This is an account of results in PMC4976923, “Potent Allosteric Dengue Virus NS5 Polymerase Inhibitors: Mechanism of Action and Resistance Profiling” (PLoS Pathogens, 2016).

Structures are written as SMILES.

The target in one data set is T1, DENV3 FL NS5 (Dengue virus type 3, UniProt Q6YMS4).
T1 construct: 100 nM DENV FL NS5 protein was added; made in house
The data set can be described thus: DENV3 FL NS5 de novo initiation FAPA assay. It is filed as biochemical. The following applies: one experiment; read-out: DENV FL NS5 de novo initiation FAPA, IC50, DENV3. On the procedure:
DENV1-4 FL NS5 dnI assays were performed as described previously. Briefly, compounds from 0–20 or -100 μM concentrations are two-fold serially diluted into 384-well black opaque plates (Corning Costar), after which 100 nM DENV FL NS5 protein was added and the plates incubated at RT for 20 min. RNA and ATTO-CTP, ATP, GTP and UTP were then added and the plates incubated for another 120 min. Reactions were stopped with buffer containing 25 nM CIP, re- incubated at RT for 60 min and read on a Tecan Safire II microplate reader. For order-of-addition experiments, DENV4 FL NS5 was incubated for one hour at RT with RNA, ATP, and GTP or RNA, ATP, GTP and ATTO-CTP, followed by exposure to serially diluted compounds for 20 min at RT. The missing components (ATTO-CTP and UTP or UTP alone) were added and the reactions continued for 120 min after which STOP buffer was added as before. All datapoints were performed in duplicate wells. Each compound was tested at least twice.
2 Co mpound testing with DENV dn I FAPA assays. Final dn I assa y reaction mixtures
3 contained 100 nM DENV 5 ´UTR-L-3´UTR IVT RNA, 20 µ M ATP, 20 µM GTP, 20 µM
4 UTP, 5 µM ATTO -CTP, and 100 nM of DENV FL NS5 protein in 15 µl in assa y buffer
5 comprising 50 mM Tris/ HCl, pH 7.5, 10 mM KCl, 1 mM MgCl2, 0.3 mM MnCl2 (DENV2
6 and 4) or 1 mM MnCl 2 (DENV1 and 3), 0.001% Triton- X-100 and 10 µ M cystein e [ 1] . To
7 perform dose-respons e inhibition measurements, compounds from 0- 20 or - 100 µM
8 concentr ations are two -fold seriall y diluted into 384-well black opaqu e plat es (Corning
9 Costar), after which 100 nM DENV FL NS5 protein was added into resp ect ive wells. The
10 plates wer e sealed, b riefl y shak en and centrif uged at 1500 rpm for 30 sec and incubated at RT
11 for 15 min. Thereafter,RNA and ATTO -CTP, ATP, GTP and UTP were added to the wells to
12 start the reactions. The pl ates wer e re-seal ed, shaken and centrifuged as before, followed b y
13 incubation RT for 120 min. Reactions were stopped by addition of 10 µl of 2.5X STOP
14 buffer (200 mM NaCl, 25 mM MgCl2, 1.5M DEA, pH 10; Promega) with 25 nM calf
15 intestinal phosphatase (CIP), re- incubation at RT for 60 min and read on a Tecan Safire II
16 microplate reader. For o r der-of-addition experiments, DENV4 FL NS5 was incubated for one
17 hour at RT with RNA, ATP, and GTP or RNA, ATP, GTP and ATTO-CTP, followed by
18 exposure to seriall y dilut ed compounds for 20 mi n at RT. The missing components (ATTO-
19 CTP and UTP or UTP alone) were added and the reactions continued for 120 min after which
20 STOP buffer was added as before. All datapoints were performed in duplicate wells. Each
21 compound was tested at l east twice.
23 Compound testing in DENV1-4 infected cells by high content imaging. Approximatel y 7
24 × 10^3 A549 cells per well were s eeded into 384-well plates in Ham’s F-12K medium

The target in a further data set is T2, DENV2 FL NS5 L511V (Dengue virus type 2, UniProt P14340, L3003V).
T2 construct: Recombinant DENV2 (A, C) and DENV4 (B, D) FL NS5 proteins bearing single or double amino acid changes; made in house
The data set is classed as binding. Particulars: 50 µM compound; for Protein melting temperature, Tm, DENV2 FL NS5 L511V: DMSO 35.5.

In the next data set the target is T3, DENV2 FL NS5 L511V/E802D (Dengue virus type 2, UniProt P14340, E3293D/L3003V).
T3 construct: Recombinant DENV2 (A, C) and DENV4 (B, D) FL NS5 proteins bearing single or double amino acid changes; made in house
It is filed as binding. Particulars: 50 µM compound; for Protein melting temperature, Tm, DENV2 FL NS5 L511V/E802D: DMSO 35.

Another data set concerns the target T4, DENV4 FL NS5 L512V (Dengue virus type 4, UniProt P09866, L2999V).
T4 construct: Recombinant DENV2 (A, C) and DENV4 (B, D) FL NS5 proteins bearing single or double amino acid changes; made in house
The data set is classed as binding. The following applies: 50 µM compound; for Protein melting temperature, Tm, DENV4 FL NS5 L512V: DMSO 36.5.

Data set [1] concerns DENV2-NGC EGFP Replicon in BHK21. Nature of the data set: Stable BHK21 DENV2-NGC EGFP replicon assay. The data set is classed as cell-based. The following applies: Dengue virus, DENV2, BHK-21; 48 hr.
For data set [2], the system named is Human rhinovirus (7 serotypes). Nature of the data set: Human rhinovirus cytopathic inhibition in HeLa cells. It is filed as cell-based. Particulars: Rhinovirus A, 120 h, cytopathic inhibition over 5 days.
A further data set can be described thus: in vitro. The following applies: human; 4–5 days; read-out: CC50, HepG2. The data set is classed as cell-based.
The test system of the next data set is DENV2-NGC replicon L512V. It is filed as cell-based. Particulars: electroporated BHK-21; 2 days.
Another data set has as its system DENV2-NGC replicon E802D. It is filed as cell-based. Particulars: electroporated BHK-21; 2 days.
In the next data set the test system is DENV2-NGC virus L512V. It is filed as cell-based. The following applies: A549, MOI = 0.2; 48 hr; plaque assay.
The subject of data set [3] is DENV2-NGC virus L512V/E802D. It is filed as cell-based. Particulars: A549, MOI = 0.2; 48 hr; plaque assay.
Data set [4] concerns Compound 29-resistant DENV2-NGC EGFP-replicon cells. Nature of the data set: Compound-resistant DENV2-NGC EGFP-replicon cells. The data set is classed as cell-based. The following applies: Dengue virus, DENV2, 48 h, read-out: EC50, Compound 29-resistant DENV2-NGC EGFP-replicon cells.
Data set [5] deals with clinical DENV2 isolate MY97-10340. The following applies: A549, 48 hr, read-out: DENV2 HCI, EC50 (converted); cited from earlier work.
The subject of another data set is DENV4, strain MY01-22713. Particulars: A549; 48 hr; read-out: DENV4 HCI, EC50 (converted); cited from earlier work.
Data set [6] has as its system WNV (New York strain 3356) replicon. The data set can be described thus: WNV replicon cell-based assay. Particulars: 0–50 μM, 2 days.
Data set [7] concerns DENV2-NGC replicon Wild Type. Nature of the data set: Transient WT DENV2-NGC replicon in BHK-21 cells. Particulars: Dengue virus, DENV2, BHK-21, 48 h, read-out: EC50, DENV2-NGC Replicon, Wild Type.

As for `COc1cccc(S(=O)(=O)NC(=O)c2cc(-c3ccc(C#CCO)s3)c(OC)cc2C)c1` [Compound 26i], the IC50 at DENV3 FL NS5 is 0.054 µM.
As for `COc1cccc(S(=O)(=O)NC(=O)c2cc(-c3ccc(C#CCO)s3)c(OC)cc2OC)c1` [Compound 27], the “Tm change compared to DMSO control, DENV2 FL NS5 L511V” value on DENV2 FL NS5 L511V turned out to be 0 °C. For the same compound, the “Protein melting temperature, Tm, DENV2 FL NS5 L511V” value at DENV2 FL NS5 L511V came out at 35.5 °C. Moreover, at DENV2 FL NS5 L511V/E802D, the “Tm change compared to DMSO control, DENV2 FL NS5 L511V/E802D” value was 0 °C. Further, the “Protein melting temperature, Tm, DENV2 FL NS5 L511V/E802D” value on DENV2 FL NS5 L511V/E802D was determined as 35 °C. The “Tm change compared to DMSO control, DENV4 FL NS5 L512V” value on DENV4 FL NS5 L512V amounted to 0 °C. At DENV4 FL NS5 L512V, the “Protein melting temperature, Tm, DENV4 FL NS5 L512V” value was 36.5 °C. Further, the EC50 in [1] is 3.5 µM; in data set [2], greater than 50 µM; in the data set with DENV2-NGC replicon L512V, 25.9 µM; in the data set on DENV2-NGC replicon E802D, 12.8 µM; in the data set with DENV2-NGC virus L512V, 2.2 µM; in data set [3] it was 2.32 µM. Besides, the EC50 in data set [4] is 41.7 µM; in [5], 2.3 µM; in the data set on DENV4, strain MY01-22713 it was 1.8 ± 0.2 µM; in data set [7], 7.83 µM. Further, the CC50 in “in vitro” was greater than 50 µM. The “activity in WNV replicon cell-based assay” value in data set [6] was “inactive”.
`COc1cc(OC)c(-c2ccc(C#CCO)s2)cc1C(=O)NS(=O)(=O)c1cccc2cccnc12` [Compound 29]: on DENV3 FL NS5, the IC50 is 0.016 µM. Moreover, the “Tm change compared to DMSO control, DENV2 FL NS5 L511V” value at DENV2 FL NS5 L511V came out at 1.0 °C. For the same compound, the “Protein melting temperature, Tm, DENV2 FL NS5 L511V” value on DENV2 FL NS5 L511V worked out at 36.5 °C. In addition, on DENV2 FL NS5 L511V/E802D, the “Tm change compared to DMSO control, DENV2 FL NS5 L511V/E802D” value was found to be 0.5 °C. Besides, the “Protein melting temperature, Tm, DENV2 FL NS5 L511V/E802D” value at DENV2 FL NS5 L511V/E802D was 35.5 °C. In addition, at DENV4 FL NS5 L512V, the “Tm change compared to DMSO control, DENV4 FL NS5 L512V” value turned out to be 1.5 °C. For the same compound, the “Protein melting temperature, Tm, DENV4 FL NS5 L512V” value on DENV4 FL NS5 L512V came to 38 °C. In addition, the EC50 in data set [1] is 5.8 µM; in data set [2], greater than 50 µM; with DENV2-NGC replicon L512V it was 32.3 µM; in the data set on DENV2-NGC replicon E802D, 21.4 µM; in the data set with DENV2-NGC virus L512V it was 6 µM; in data set [3] it was 7.01 µM. The EC50 in [4] was 34 µM; in data set [5], 14.1 µM; in the data set with DENV4, strain MY01-22713, 10.2 µM; in data set [7] it was 6.7 µM. The CC50 in “in vitro” is greater than 50 µM. Also, the “activity in WNV replicon cell-based assay” value in data set [6] is “inactive”.
